Experimental data as given in patent US20060069132A1, “Azolecarboxamide herbicides” (priority 2004, published 2006).

Legend:
[1] = system: lambsquarters; assay: Test B pre-/postemergence herbicide test; format: in vivo, Chenopodium album; conditions: for Lambsquarters plant response rating: postemergence
How it was run: (§1)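 Seeds were planted and treated preemergence with compounds formulated in a non-phytotoxic solvent mixture containing surfactant, while plants at the 1- to 4-leaf stage (2 to 18 cm) received postemergence sprays. Flooded paddy plants were grown to the 2-leaf stage. After 13 to 15 days in a greenhouse, injury was visually rated 0–100 against untreated controls.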

[2] = system: velvetleaf; assay: Test A pre-/postemergence herbicide test; format: in vivo, Abutilon theophrasti
How it was run: (§2)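 Both application timings were run together: directed soil spray over freshly planted seeds in sandy loam, and runoff spray onto 2–10 cm seedlings. Evaluation after ~10 days in greenhouse used a 0–100 visual scale versus untreated controls.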

[3] = system: wheat; assay: Test B postemergence herbicide test; format: in vivo, Triticum aestivum; parameters: key to Wheat plant response rating: 0 = no effect, 100 = complete control; conditions: postemergence
How it was run: (§3)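 Plants grow to 1- to 4-leaf stage (2–18 cm) for postemergence spraying, or to 2-leaf stage for the paddy test. Formulated compound is applied. Greenhouse holding lasts 13–15 days. Response is scored visually relative to controls, 0 no effect to 100 complete control; a dash means no result.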

[4] = system: barnyardgrass; assay: Test B flooded paddy test; format: in vivo, Echinochloa crus-galli; conditions: 1000 g ai/ha, scale 0 to 100 (0 no effect, 100 complete control)
How it was run: (§4)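 Visual ratings, 0 (no effect) to 100 (complete control), made versus controls after 13–15 d greenhouse. Paddy plants treated at 2-leaf stage; postemergence plants at 1- to 4-leaf stage, 2–18 cm tall.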

[5] = system: large crabgrass; assay: Test B pre-/postemergence herbicide test; format: in vivo, Digitaria sanguinalis; conditions: for Crabgrass, Large plant response rating: postemergence
How it was run: as §1

[6] = system: pigweed; assay: Test B pre-/postemergence herbicide test; format: in vivo, Amaranthus retroflexus; conditions: for Pigweed plant response rating: postemergence
How it was run: as §1

[7] = system: velvetleaf; assay: Test B pre-/postemergence herbicide test; format: in vivo, Abutilon theophrasti; conditions: for Velvetleaf plant response rating: postemergence
How it was run: as §1

[8] = system: small flower umbrella sedge; assay: Test B flooded paddy test; format: in vivo, Cyperus difformis; conditions: 1000 g ai/ha, scale 0 to 100 (0 no effect, 100 complete control)
How it was run: as §4

[9] = system: large crabgrass; assay: Test A pre-/postemergence herbicide test; format: in vivo, Digitaria sanguinalis
How it was run: as §2

[10] = system: rice; assay: Test B flooded paddy test; format: in vivo, Oryza sativa; conditions: 1000 g ai/ha, scale 0 to 100 (0 no effect, 100 complete control)
How it was run: as §4

[11] = system: cocklebur; assay: Test B pre-/postemergence herbicide test; format: in vivo, Xanthium strumarium; conditions: for Cocklebur plant response rating: postemergence
How it was run: (§5)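 Visual rating, 0 (no effect) to 100 (complete control), versus untreated controls after 13–15 d in greenhouse. Pre- and postemergence applications (postemergence plants 2–18 cm, 1–4 leaves); flooded paddy arm at 2-leaf stage. Compounds in non-phytotoxic solvent plus surfactant.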

[12] = system: ducksalad; assay: Test B flooded paddy test; format: in vivo, Heteranthera limosa; conditions: 1000 g ai/ha, scale 0 to 100 (0 no effect, 100 complete control)
How it was run: as §4

[13] = system: corn; assay: Test B pre-/postemergence herbicide test; format: in vivo, Zea mays; conditions: for Corn plant response rating: postemergence
How it was run: as §1

[14] = system: morningglory; assay: Test A pre-/postemergence herbicide test; format: in vivo, Ipomoea spp.
How it was run: as §2

[15] = system: morningglory; assay: Test B pre-/postemergence herbicide test; format: in vivo, Ipomoea coccinea; conditions: for Morningglory plant response rating: postemergence
How it was run: as §5

[16] = system: redroot pigweed; assay: Test A pre-/postemergence herbicide test; format: in vivo, Amaranthus retroflexus
How it was run: as §2

[17] = system: wild oat; assay: Test B postemergence herbicide test; format: in vivo, Avena fatua; conditions: postemergence
How it was run: as §3

[18] = system: giant foxtail; assay: Test A pre-/postemergence herbicide test; format: in vivo, Setaria faberi
How it was run: as §2

[19] = system: rice; assay: Test B pre-/postemergence herbicide test; format: in vivo, Oryza sativa; conditions: 0 = no effect, 100 = complete control, preemergence
How it was run: as §1

[20] = system: blackgrass; assay: Test B postemergence herbicide test; format: in vivo, Alopecurus myosuroides; conditions: postemergence
How it was run: as §4

[21] = system: giant foxtail; assay: Test B pre-/postemergence herbicide test; format: in vivo, Setaria faberi; conditions: for Foxtail, Giant plant response rating: postemergence
How it was run: as §1

[22] = system: Surinam grass; assay: Test B pre-/postemergence herbicide test; format: in vivo, Urochloa decumbens; conditions: for Surinam Grass plant response rating: postemergence
How it was run: as §1

[23] = system: barnyardgrass; assay: Test B pre-/postemergence herbicide test; format: in vivo, Echinochloa crus-galli; conditions: for Barnyardgrass plant response rating: postemergence
How it was run: as §5

[24] = system: barnyardgrass; assay: Test A pre-/postemergence herbicide test; format: in vivo, Echinochloa crus-galli
How it was run: as §2

[25] = 125 g ai/ha, 0 = no effect, 100 = complete control, preemergence
[26] = 500 g ai/ha, visual rating, 0 = no effect, 100 = complete control, preemergence
[27] = 125 g ai/ha, visual rating, scale 0 (no effect) to 100 (complete control)
[28] = 500 g ai/ha, scale 0 to 100, 0 is no effect, 100 is complete control
[29] = Postemergence, 500 g ai/ha, 0 to 100 scale, 0 no effect, 100 complete control
[30] = Postemergence, 2000 g ai/ha, 0 to 100 scale, 0 no effect, 100 complete control
[31] = Preemergence, 2000 g ai/ha, visual rating, 0 to 100 scale (0 no effect, 100 complete control)
[32] = preemergence, 500 g ai/ha, visual injury, 0 to 100 scale (0 no effect, 100 complete control)

CCn1nc(C(C)(C)C)cc1C(=O)Nc1nc(C(=O)N(C)C)ccc1F [Compound 277]
Lambsquarters plant response rating (0 to 100 scale) [1, 25]: 40 | Plant response rating, Lambsquarters [1, 26]: 80 | Lambsquarters plant response rating [1, 27]: 20 | Lambsquarters plant response rating [1, 28]: 30 | Velvetleaf plant response rating [2, 29]: 25 | Plant response rating, Velvetleaf [2, 30]: 30 | Velvetleaf plant response rating [2, 31]: 45 | Velvetleaf plant response rating [2, 32]: 5 | Wheat plant response rating [3, 27]: 20 | Wheat plant response rating [3, 28]: 20 | Barnyardgrass plant response rating [4]: 0 | Crabgrass, Large plant response rating (0 to 100 scale) [5, 25]: 0 | Plant response rating, Crabgrass, Large [5, 26]: 0 | Crabgrass, Large plant response rating [5, 27]: 0 | Crabgrass, Large plant response rating [5, 28]: 0 | Pigweed plant response rating (0 to 100 scale) [6, 25]: 60 | Plant response rating, Pigweed [6, 26]: 100 | Pigweed plant response rating [6, 27]: 0 | Pigweed plant response rating [6, 28]: 10 | Velvetleaf plant response rating (0 to 100 scale) [7, 25]: 0 | Plant response rating, Velvetleaf [7, 26]: 40 | Velvetleaf plant response rating [7, 27]: 20 | Velvetleaf plant response rating [7, 28]: 20 | Sedge, Umbrella plant response rating [8]: 0 | Crabgrass, Large plant response rating [9, 29]: 0 | Plant response rating, Crabgrass, Large [9, 30]: 0 | Crabgrass, Large plant response rating [9, 31]: 25 | Crabgrass, Large plant response rating [9, 32]: 0 | Rice plant response rating [10]: 0 | Cocklebur plant response rating (0 to 100 scale) [11, 25]: 0 | Plant response rating, Cocklebur [11, 26]: 10 | Cocklebur plant response rating [11, 27]: 0 | Cocklebur plant response rating [11, 28]: 0 | Ducksalad plant response rating [12]: 0 | Corn plant response rating (0 to 100 scale) [13, 25]: 0 | Plant response rating, Corn [13, 26]: 0 | Corn plant response rating [13, 27]: 0 | Corn plant response rating [13, 28]: 10 | Morningglory plant response rating [14, 29]: 0 | Plant response rating, Morningglory [14, 30]: 0 | Morningglory plant response rating [14, 31]: 0 | Morningglory plant response rating [14, 32]: 0 | Morningglory plant response rating (0 to 100 scale) [15, 25]: 0 | Plant response rating, Morningglory [15, 26]: 0 | Morningglory plant response rating [15, 27]: 0 | Morningglory plant response rating [15, 28]: 20 | Pigweed plant response rating [16, 29]: 10 | Plant response rating, Pigweed [16, 30]: 35 | Pigweed plant response rating [16, 31]: 70 | Pigweed plant response rating [16, 32]: 40 | Oat, Wild plant response rating [17, 27]: 10 | Oat, Wild plant response rating [17, 28]: 20 | Foxtail, Giant plant response rating [18, 29]: 0 | Plant response rating, Foxtail, Giant [18, 30]: 0 | Foxtail, Giant plant response rating [18, 31]: 55 | Foxtail, Giant plant response rating [18, 32]: 0 | Rice plant response rating (0 to 100 scale) ([19]; 125 g ai/ha): 0 | Plant response rating, Rice ([19]; 500 g ai/ha, visual rating): 20 | Blackgrass plant response rating [20, 27]: 10 | Blackgrass plant response rating [20, 28]: 20 | Foxtail, Giant plant response rating (0 to 100 scale) [21, 25]: 0 | Plant response rating, Foxtail, Giant [21, 26]: 0 | Foxtail, Giant plant response rating [21, 27]: 0 | Foxtail, Giant plant response rating [21, 28]: 0 | Surinam Grass plant response rating (0 to 100 scale) [22, 25]: 0 | Plant response rating, Surinam Grass [22, 26]: 0 | Surinam Grass plant response rating [22, 27]: 0 | Surinam Grass plant response rating [22, 28]: 0 | Barnyardgrass plant response rating (0 to 100 scale) [23, 25]: 0 | Plant response rating, Barnyardgrass [23, 26]: 0 | Barnyardgrass plant response rating [23, 27]: 0 | Barnyardgrass plant response rating [23, 28]: 0 | Barnyardgrass plant response rating [24, 29]: 0 | Plant response rating, Barnyardgrass [24, 30]: 50 | Barnyardgrass plant response rating [24, 31]: 70 | Barnyardgrass plant response rating [24, 32]: 0
